Test results reported in ChEMBL document CHEMBL1147674, “Evolution of the thienopyridine class of inhibitors of IkappaB kinase-beta: part I: hit-to-lead strategies” (J Med Chem, 2006).
Converted amounts (≈) assume the structure as drawn.

Key:
[1] = molecular target: T1, Inhibitor of nuclear factor kappa-B kinase subunit beta (Homo sapiens, UniProt O14920)
T1 sequence (O14920 whole entry): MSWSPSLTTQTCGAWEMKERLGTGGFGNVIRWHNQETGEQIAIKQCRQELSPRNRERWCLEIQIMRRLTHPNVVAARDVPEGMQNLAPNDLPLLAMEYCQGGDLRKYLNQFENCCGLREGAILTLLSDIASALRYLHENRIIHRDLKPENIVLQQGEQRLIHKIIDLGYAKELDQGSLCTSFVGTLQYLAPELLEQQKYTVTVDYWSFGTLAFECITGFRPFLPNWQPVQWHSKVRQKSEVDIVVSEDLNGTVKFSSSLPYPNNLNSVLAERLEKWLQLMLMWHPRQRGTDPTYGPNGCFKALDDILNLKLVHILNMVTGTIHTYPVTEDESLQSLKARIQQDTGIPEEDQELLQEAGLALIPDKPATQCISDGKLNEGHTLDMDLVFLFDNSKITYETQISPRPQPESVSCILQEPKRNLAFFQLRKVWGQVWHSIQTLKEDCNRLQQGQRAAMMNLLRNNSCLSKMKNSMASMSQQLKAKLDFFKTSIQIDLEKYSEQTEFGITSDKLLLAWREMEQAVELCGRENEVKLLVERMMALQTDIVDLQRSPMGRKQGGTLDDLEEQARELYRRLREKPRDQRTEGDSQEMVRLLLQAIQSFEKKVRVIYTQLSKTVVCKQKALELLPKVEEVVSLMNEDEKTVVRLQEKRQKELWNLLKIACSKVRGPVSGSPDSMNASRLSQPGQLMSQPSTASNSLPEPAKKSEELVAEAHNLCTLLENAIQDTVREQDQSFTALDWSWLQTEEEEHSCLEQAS

[2] = molecular target: Cytochrome P450 3A4 (Homo sapiens, UniProt P08684); assay: Inhibition of CYP3A4; format: ADME
[3] = system: HeLa; assay: Viability of HeLa cells at 50 uM by alomar blue assay; format: functional, Homo sapiens
[4] = molecular target: T2, Inhibitor of nuclear factor kappa-B kinase subunit alpha (Homo sapiens, UniProt O15111); assay: Inhibition of IKK alpha
T2 sequence (O15111 whole entry): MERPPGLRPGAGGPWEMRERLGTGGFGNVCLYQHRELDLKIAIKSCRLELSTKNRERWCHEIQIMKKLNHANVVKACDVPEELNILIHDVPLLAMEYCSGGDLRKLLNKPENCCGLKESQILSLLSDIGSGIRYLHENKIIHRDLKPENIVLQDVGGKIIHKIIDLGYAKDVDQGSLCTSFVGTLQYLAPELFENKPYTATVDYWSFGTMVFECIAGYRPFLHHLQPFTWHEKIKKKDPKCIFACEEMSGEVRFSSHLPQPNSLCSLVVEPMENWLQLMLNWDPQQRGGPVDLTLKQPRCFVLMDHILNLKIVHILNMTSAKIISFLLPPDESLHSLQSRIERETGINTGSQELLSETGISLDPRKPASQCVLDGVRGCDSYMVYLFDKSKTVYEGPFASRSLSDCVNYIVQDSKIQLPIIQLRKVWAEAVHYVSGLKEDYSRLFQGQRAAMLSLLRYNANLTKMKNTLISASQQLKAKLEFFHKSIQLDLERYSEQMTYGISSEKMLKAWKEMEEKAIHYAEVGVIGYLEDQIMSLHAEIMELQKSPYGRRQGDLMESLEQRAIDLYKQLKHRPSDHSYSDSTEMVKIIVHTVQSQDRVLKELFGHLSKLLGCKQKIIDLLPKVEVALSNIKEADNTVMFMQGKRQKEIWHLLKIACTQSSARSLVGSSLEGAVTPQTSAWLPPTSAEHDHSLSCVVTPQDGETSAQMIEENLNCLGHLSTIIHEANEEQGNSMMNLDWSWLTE

[5] = Solubility at pH 7.4; format: physicochemical; conditions: buffer
[6] = Permeability from apical to basolateral side of Caco-2 cell membrane; format: ADME, cell-based; conditions: human, read-out: permeability
[7] = Half life in human liver microsome; format: ADME; conditions: liver microsomes
[8] = molecular target: T3, Cytochrome P450 1A2 (Homo sapiens, UniProt P05177); assay: Inhibition of CYP1A2; format: ADME
T3 sequence (P05177 whole entry): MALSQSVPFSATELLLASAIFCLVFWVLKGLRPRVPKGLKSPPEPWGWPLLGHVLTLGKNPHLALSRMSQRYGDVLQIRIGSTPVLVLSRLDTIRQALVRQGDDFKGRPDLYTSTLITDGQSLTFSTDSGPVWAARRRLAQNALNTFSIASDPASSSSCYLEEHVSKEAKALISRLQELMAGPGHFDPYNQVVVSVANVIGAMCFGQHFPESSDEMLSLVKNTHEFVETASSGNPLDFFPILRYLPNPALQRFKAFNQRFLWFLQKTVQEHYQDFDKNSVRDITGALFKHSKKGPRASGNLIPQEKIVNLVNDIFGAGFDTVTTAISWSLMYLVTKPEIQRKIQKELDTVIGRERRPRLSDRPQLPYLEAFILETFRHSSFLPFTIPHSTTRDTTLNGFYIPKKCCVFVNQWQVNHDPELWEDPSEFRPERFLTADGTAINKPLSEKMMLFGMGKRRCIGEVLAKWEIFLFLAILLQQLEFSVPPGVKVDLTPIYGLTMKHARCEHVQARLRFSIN

[9] = molecular target: Cytochrome P450 2C9 (Homo sapiens, UniProt P11712); assay: Inhibition of CYP2C9; format: ADME
[10] = molecular target: Cytochrome P450 2C19 (Homo sapiens, UniProt P33261); assay: Inhibition of CYP2C19; format: ADME
[11] = molecular target: Cytochrome P450 2D6 (Homo sapiens, UniProt P10635); assay: Inhibition of CYP2D6; format: ADME
[12] = Inhibition of ICAM1 expression in HeLa cells at 10 uM; format: functional; conditions: Homo sapiens
[13] = Inhibition of NF-kappaB luciferase reporter gene in HeLa cells at 10 uM; format: functional; conditions: Homo sapiens
[14] = molecular target: Tyrosine-protein kinase BTK (Homo sapiens, UniProt Q06187); assay: Inhibition of BTK
Sequence of Tyrosine-protein kinase BTK (Q06187 whole entry): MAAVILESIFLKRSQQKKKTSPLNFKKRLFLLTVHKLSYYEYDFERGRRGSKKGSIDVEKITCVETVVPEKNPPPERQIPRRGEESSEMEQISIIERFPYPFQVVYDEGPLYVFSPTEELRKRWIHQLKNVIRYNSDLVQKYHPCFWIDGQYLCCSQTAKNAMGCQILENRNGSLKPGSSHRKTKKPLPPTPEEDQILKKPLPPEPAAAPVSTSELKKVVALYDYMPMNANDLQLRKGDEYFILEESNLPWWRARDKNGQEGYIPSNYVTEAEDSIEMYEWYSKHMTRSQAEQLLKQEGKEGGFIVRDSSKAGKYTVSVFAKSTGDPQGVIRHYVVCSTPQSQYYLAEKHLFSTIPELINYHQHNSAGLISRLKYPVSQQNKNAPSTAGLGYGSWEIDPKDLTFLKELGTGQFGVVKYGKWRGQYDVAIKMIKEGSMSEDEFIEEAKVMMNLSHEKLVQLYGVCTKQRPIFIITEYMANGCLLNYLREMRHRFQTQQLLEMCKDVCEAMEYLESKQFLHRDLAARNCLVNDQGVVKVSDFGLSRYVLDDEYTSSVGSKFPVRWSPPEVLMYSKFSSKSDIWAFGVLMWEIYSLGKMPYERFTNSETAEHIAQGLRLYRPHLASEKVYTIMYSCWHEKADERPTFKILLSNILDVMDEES

Sequence of Cytochrome P450 3A4 (P08684 whole entry): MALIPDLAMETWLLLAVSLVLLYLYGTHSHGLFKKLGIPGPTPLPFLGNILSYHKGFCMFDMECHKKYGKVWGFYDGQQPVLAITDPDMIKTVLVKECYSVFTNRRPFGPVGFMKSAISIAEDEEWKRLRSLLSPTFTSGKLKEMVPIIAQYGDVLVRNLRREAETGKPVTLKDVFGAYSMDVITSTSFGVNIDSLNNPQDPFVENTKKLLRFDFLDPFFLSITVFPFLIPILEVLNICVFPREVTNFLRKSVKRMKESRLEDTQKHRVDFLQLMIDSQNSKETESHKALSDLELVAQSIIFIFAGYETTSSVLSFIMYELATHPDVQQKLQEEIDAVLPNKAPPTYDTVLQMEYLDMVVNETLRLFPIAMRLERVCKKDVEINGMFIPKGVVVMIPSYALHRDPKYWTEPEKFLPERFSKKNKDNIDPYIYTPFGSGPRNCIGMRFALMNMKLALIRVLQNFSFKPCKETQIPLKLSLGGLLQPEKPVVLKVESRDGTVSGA
Sequence of Cytochrome P450 2C9 (P11712 whole entry): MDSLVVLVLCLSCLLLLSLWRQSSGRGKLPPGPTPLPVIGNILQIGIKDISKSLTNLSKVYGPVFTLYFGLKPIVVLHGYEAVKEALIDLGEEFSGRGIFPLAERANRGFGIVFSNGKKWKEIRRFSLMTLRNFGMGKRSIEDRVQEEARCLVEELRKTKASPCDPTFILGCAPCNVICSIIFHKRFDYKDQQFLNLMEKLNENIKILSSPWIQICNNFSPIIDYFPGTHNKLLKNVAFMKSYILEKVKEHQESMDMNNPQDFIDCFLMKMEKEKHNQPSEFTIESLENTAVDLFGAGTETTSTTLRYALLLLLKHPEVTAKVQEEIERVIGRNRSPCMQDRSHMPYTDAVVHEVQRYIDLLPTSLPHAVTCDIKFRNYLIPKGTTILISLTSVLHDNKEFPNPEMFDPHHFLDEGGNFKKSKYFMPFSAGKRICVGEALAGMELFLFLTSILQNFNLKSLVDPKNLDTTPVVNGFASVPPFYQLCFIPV
Sequence of Cytochrome P450 2C19 (P33261 whole entry): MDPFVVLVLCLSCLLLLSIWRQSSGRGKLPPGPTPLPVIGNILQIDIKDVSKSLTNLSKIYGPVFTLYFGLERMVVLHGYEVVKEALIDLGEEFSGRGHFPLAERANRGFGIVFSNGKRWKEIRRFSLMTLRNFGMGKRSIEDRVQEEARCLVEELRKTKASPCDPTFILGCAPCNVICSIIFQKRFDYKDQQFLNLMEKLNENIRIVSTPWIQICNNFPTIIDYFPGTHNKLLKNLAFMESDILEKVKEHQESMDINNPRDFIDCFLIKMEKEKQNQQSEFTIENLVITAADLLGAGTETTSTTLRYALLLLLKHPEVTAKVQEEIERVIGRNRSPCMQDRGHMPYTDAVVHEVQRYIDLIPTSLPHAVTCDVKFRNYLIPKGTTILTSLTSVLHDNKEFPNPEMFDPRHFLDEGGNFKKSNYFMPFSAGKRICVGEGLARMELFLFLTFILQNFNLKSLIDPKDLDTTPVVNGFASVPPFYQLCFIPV
Sequence of Cytochrome P450 2D6 (P10635 whole entry): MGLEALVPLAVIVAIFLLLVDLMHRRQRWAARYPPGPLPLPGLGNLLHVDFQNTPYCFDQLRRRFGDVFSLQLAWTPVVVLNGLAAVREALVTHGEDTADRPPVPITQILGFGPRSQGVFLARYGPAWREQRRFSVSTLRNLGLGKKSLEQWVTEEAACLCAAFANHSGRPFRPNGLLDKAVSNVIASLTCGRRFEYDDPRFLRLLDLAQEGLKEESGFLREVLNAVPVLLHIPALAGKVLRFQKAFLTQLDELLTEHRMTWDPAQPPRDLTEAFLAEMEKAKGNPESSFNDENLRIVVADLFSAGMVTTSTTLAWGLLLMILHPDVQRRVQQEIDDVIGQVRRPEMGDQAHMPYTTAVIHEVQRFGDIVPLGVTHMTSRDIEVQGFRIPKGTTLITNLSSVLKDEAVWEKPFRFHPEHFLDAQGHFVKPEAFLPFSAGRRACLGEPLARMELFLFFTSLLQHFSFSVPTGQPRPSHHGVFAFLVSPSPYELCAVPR

Question: With `NC(=O)c1sc(-c2ccsc2)cc1N` as the molecule, how does the IC50 [1] read?
Answer: The IC50 was 1.3 µM.

Question: With `NC(=O)c1ccc(-c2nc(C(N)=O)c(N)o2)cc1` as the molecule, how does the IC50 [1] read?
Answer: Its IC50 is 25.8 µM.

Question: Which IC50 [1] does the source give for `NC(=O)c1c(N)nc2ccc(Cl)cc2c1-c1ccccc1` here?
Answer: The IC50 was over 35 µM.

Question: For `Cc1cc(COc2ccccc2)c2c(N)c(C(N)=O)sc2n1`, which IC50 [1] is on record?
Answer: The IC50 was 8.2 µM.

Question: For `NC(=O)c1cc2ccccc2nc1N`, which IC50 [1] is on record?
Answer: Its IC50 is 9.6 µM.

Question: Which IC50 [1] does the source give for `Cc1cc(CO)c2c(N)c(C(N)=O)sc2n1` here?
Answer: Its IC50 is 12.7 µM.

Question: Which IC50 [1] does the source give for `NC(=O)c1nc(-c2cccc(Cl)c2)oc1N` here?
Answer: Its IC50 is 10.6 µM.

Question: For `NC(=O)c1ccc(-c2ccc(Cl)cc2)s1`, which IC50 [1] is on record?
Answer: Its IC50 is over 50 µM.

Question: For `NC(=O)c1sc2ncccc2c1N`, which IC50 [2] is on record?
Answer: The IC50 was over 30 µM.

Question: And the Activity [3]?
Answer: The Activity was 93%.

Question: What about the IC50 [1] of the same molecule?
Answer: The IC50 was 7.4 µM.

Question: And the IC50 [4]?
Answer: The IC50 was 21 µM.

Question: And the solubility [5]?
Answer: The solubility was 32 µg/mL (≈ 166 µM).

Question: What about the Papp A→B [6] of the same molecule?
Answer: The Papp A→B was 12.8 ×10⁻⁶ cm/s.

Question: And the half-life [7]?
Answer: The half-life was 146 min.

Question: And the IC50 [8]?
Answer: Its IC50 is over 30 µM.

Question: What about the IC50 [9] of the same molecule?
Answer: Its IC50 is over 30 µM.

Question: And the IC50 [10]?
Answer: Its IC50 is over 30 µM.

Question: What about the IC50 [11] of the same molecule?
Answer: Its IC50 is over 30 µM.

Question: With `NC(=O)c1sc(-c2ccccc2)cc1N` as the molecule, how does the inhibition at 10 µM [12] read?
Answer: The inhibition at 10 µM was 42%.

Question: What about the inhibition at 10 µM [13] of the same molecule?
Answer: Its inhibition at 10 µM is 20%.

Question: What about the IC50 [2] of the same molecule?
Answer: Its IC50 is 3.5 µM.

Question: What about the Activity [3] of the same molecule?
Answer: The Activity was 100%.

Question: And the IC50 [14]?
Answer: Its IC50 is 15.1 µM.

Question: And the IC50 [1]?
Answer: Its IC50 is 1.1 µM.

Question: And the IC50 [4]?
Answer: The IC50 was over 30 µM.

Question: What about the solubility [5] of the same molecule?
Answer: Its solubility is 10 µg/mL (≈ 45.8 µM).

Question: And the Papp A→B [6]?
Answer: The Papp A→B was 9.3 ×10⁻⁶ cm/s.

Question: What about the half-life [7] of the same molecule?
Answer: The half-life was 22 min.

Question: What about the IC50 [8] of the same molecule?
Answer: The IC50 was 5 µM.

Question: What about the IC50 [9] of the same molecule?
Answer: The IC50 was 26 µM.

Question: And the IC50 [10]?
Answer: The IC50 was over 30 µM.

Question: And the IC50 [11]?
Answer: The IC50 was over 30 µM.

Question: For `COc1cccc(-c2nc(C(N)=O)c(N)o2)c1`, which IC50 [1] is on record?
Answer: The IC50 was 13.9 µM.

Question: Which inhibition at 10 µM [12] does the source give for `NC(=O)c1sc(-c2ccc(F)cc2)cc1N` here?
Answer: Its inhibition at 10 µM is 48%.

Question: What about the inhibition at 10 µM [13] of the same molecule?
Answer: Its inhibition at 10 µM is 45%.

Question: And the IC50 [2]?
Answer: The IC50 was 2 µM.

Question: What about the Activity [3] of the same molecule?
Answer: Its Activity is 100%.

Question: And the IC50 [1]?
Answer: The IC50 was 2.6 µM.

Question: What about the IC50 [4] of the same molecule?
Answer: Its IC50 is 24 µM.

Question: What about the solubility [5] of the same molecule?
Answer: The solubility was 7 µg/mL (≈ 29.6 µM).

Question: And the Papp A→B [6]?
Answer: The Papp A→B was 19.3 ×10⁻⁶ cm/s.

Question: What about the half-life [7] of the same molecule?
Answer: Its half-life is 12 min.

Question: And the IC50 [8]?
Answer: Its IC50 is 12 µM.

Question: What about the IC50 [9] of the same molecule?
Answer: The IC50 was 7 µM.

Question: And the IC50 [10]?
Answer: The IC50 was 4 µM.

Question: And the IC50 [11]?
Answer: Its IC50 is over 30 µM.

Question: With `Cc1cc(COc2ccc(C#N)cc2)c2c(N)c(C(N)=O)sc2n1` as the molecule, how does the IC50 [1] read?
Answer: Its IC50 is 5.6 µM.

Question: Which IC50 [1] does the source give for `COc1ccc(OCc2cc(C)nc3sc(C(N)=O)c(N)c23)cc1` here?
Answer: The IC50 was 13 µM.

Question: With `CCC(=O)Nc1cc(-c2ccccc2)sc1C(N)=O` as the molecule, how does the IC50 [1] read?
Answer: The IC50 was 10.3 µM.

Question: With `Cc1cnc2sc(C(N)=O)c(N)c2c1` as the molecule, how does the IC50 [1] read?
Answer: Its IC50 is 19.9 µM.

Question: For `Cc1nc2sc(C(N)=O)c(N)c2c(C)c1Cl`, which IC50 [1] is on record?
Answer: Its IC50 is over 27.5 µM.

Question: With `Cc1cc(COc2ccc(C(N)=O)cc2)c2c(N)c(C(N)=O)sc2n1` as the molecule, how does the IC50 [1] read?
Answer: The IC50 was 1.4 µM.

Question: Which IC50 [1] does the source give for `CCCCc1cc(C)c2c(N)c(C(N)=O)sc2n1` here?
Answer: Its IC50 is 2.5 µM.

Question: With `COc1ccccc1-c1nc(C(N)=O)c(N)o1` as the molecule, how does the IC50 [1] read?
Answer: The IC50 was 36.2 µM.

Question: Which IC50 [1] does the source give for `NC(=O)c1nc(-c2ccccc2Cl)oc1N` here?
Answer: The IC50 was 6.6 µM.

Question: Which IC50 [1] does the source give for `Cc1cc(CC(C)C)nc2sc(C(N)=O)c(N)c12` here?
Answer: Its IC50 is 4.1 µM.

Question: With `NC(=O)c1nc(C2CCCCC2)oc1N` as the molecule, how does the IC50 [1] read?
Answer: The IC50 was over 32.5 µM.

Question: Which IC50 [1] does the source give for `Cc1ccccc1-c1nc(C(N)=O)c(N)o1` here?
Answer: Its IC50 is 6.3 µM.

Question: For `COC(=O)c1sc(-c2ccccc2)cc1N`, which IC50 [1] is on record?
Answer: The IC50 was over 30 µM.
